Test results published in the kinase profiling compilation of Christmann-Franck et al. (2016).

Assays:
Experiment in all cases: radiometric filter-binding kinase assay, Kinase HotSpot
Details in all cases: compound 0.5 µM; ATP 10 µM
[1] = target: PAK1 (human) (UniProt Q13153)
[2] = target: MYLK2 (human) (UniProt Q9H1R3)
[3] = target: LRRK2 (human) (UniProt Q5S007)
[4] = target: ULK3 (human) (UniProt Q6PHR2)
[5] = target: MST1R (human) (UniProt Q04912)
[6] = target: DYRK4 (human) (UniProt Q9NR20)
[7] = target: TXK (human) (UniProt P42681)
[8] = target: CDK6 CCND3 (human) (UniProt P30281+Q00534)
[9] = target: HCK (human) (UniProt P08631)
[10] = target: EPHA4 (human) (UniProt P54764)
[11] = target: PAK7 (human) (UniProt Q9P286)
[12] = target: CAMKK2 (human) (UniProt Q96RR4)
[13] = target: SIK2 (human) (UniProt Q9H0K1)
[14] = target: PDPK1 (human) (UniProt O15530)
[15] = target: AXL (human) (UniProt P30530)
[16] = target: PHKG1 (human) (UniProt Q16816)
[17] = target: CDK6 CCND1 (human) (UniProt Q00534+P24385)
[18] = target: MAPKAPK3 (human) (UniProt Q16644)
[19] = target: TLK2 (human) (UniProt Q86UE8)
[20] = target: PNCK (human) (UniProt Q6P2M8)
[21] = target: BRAF (human) (UniProt P15056)
[22] = target: NEK4 (human) (UniProt P51957)
[23] = target: STK38 (human) (UniProt Q15208)
[24] = target: ALK (human) (UniProt Q9UM73)
[25] = target: SRPK3 (human) (UniProt Q9UPE1)
[26] = target: MYO3B (human) (UniProt Q8WXR4)
[27] = target: PRKACG (human) (UniProt P22612)
[28] = target: DYRK1B (human) (UniProt Q9Y463)
[29] = target: CAMK1G (human) (UniProt Q96NX5)
[30] = target: AURKB (human) (UniProt Q96GD4)
[31] = target: ACVR1B (human) (UniProt P36896)
[32] = target: IKBKE (human) (UniProt Q14164)
[33] = target: DMPK (human) (UniProt Q09013)
[34] = target: PLK2 (human) (UniProt Q9NYY3)
[35] = target: EPHA6 (human) (UniProt Q9UF33)
[36] = target: CHEK2 (human) (UniProt O96017)
[37] = target: STK33 (human) (UniProt Q9BYT3)
[38] = target: LCK (human) (UniProt P06239)
[39] = target: PLK3 (human) (UniProt Q9H4B4)
[40] = target: CLK2 (human) (UniProt P49760)
[41] = target: TAOK2 (human) (UniProt Q9UL54)
[42] = target: EGFR (human) (UniProt P00533)

Chain of PNCK (human) (Q6P2M8 whole entry, looked up): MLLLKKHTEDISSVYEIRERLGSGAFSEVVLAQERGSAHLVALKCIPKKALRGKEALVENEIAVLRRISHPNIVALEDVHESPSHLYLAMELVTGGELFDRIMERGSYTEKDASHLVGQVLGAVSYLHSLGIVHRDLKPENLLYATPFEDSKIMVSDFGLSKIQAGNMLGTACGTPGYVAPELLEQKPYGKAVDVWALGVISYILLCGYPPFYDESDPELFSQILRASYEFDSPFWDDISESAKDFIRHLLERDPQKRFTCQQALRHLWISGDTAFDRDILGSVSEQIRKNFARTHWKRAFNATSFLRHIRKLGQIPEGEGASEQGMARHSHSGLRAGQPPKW
Chain of DMPK (human) (Q09013 whole entry, looked up): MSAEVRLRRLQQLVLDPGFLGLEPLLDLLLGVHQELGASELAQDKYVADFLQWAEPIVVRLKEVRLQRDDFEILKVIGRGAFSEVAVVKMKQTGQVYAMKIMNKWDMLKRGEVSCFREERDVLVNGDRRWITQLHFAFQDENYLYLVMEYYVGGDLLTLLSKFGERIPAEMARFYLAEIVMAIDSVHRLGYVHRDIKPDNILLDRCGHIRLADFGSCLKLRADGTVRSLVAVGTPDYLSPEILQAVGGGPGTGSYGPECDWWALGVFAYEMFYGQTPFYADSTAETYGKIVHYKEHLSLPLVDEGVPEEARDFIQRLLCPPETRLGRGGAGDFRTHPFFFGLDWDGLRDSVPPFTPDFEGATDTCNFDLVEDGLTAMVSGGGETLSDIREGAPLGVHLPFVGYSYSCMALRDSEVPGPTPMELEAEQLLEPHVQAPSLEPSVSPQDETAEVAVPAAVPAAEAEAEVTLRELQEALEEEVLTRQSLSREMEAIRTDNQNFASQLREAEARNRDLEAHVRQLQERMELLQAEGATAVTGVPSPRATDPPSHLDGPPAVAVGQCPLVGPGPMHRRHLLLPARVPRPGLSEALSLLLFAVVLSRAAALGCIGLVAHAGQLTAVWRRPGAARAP
Chain of TXK (human) (P42681 whole entry, looked up): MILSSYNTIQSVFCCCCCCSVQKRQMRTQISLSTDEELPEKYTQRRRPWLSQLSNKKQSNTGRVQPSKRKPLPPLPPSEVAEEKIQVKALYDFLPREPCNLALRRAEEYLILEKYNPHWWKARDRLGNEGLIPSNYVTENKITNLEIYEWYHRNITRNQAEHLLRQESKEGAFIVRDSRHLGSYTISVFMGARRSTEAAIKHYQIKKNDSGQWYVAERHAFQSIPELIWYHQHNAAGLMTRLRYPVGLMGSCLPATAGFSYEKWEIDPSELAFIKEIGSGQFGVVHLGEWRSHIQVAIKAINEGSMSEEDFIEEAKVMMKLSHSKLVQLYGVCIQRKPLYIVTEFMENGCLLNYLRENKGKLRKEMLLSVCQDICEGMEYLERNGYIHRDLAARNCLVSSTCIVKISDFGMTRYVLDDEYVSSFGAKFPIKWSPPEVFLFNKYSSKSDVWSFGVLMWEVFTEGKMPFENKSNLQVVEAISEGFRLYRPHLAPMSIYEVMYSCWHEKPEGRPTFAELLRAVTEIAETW
Chain of ACVR1B (human) (P36896 whole entry, looked up): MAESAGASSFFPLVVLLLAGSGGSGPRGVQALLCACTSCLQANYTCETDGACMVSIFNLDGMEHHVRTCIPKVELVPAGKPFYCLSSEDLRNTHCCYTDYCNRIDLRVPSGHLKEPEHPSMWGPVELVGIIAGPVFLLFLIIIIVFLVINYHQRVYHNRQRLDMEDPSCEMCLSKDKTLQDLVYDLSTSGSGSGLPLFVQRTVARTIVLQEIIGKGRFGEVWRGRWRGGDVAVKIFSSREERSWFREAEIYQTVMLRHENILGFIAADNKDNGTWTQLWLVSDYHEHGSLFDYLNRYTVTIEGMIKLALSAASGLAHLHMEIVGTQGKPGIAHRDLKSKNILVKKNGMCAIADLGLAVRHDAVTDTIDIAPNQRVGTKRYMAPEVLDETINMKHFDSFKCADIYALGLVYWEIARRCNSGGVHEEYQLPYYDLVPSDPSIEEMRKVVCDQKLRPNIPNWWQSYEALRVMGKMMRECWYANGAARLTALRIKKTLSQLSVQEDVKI
Chain of DYRK1B (human) (Q9Y463 whole entry, looked up): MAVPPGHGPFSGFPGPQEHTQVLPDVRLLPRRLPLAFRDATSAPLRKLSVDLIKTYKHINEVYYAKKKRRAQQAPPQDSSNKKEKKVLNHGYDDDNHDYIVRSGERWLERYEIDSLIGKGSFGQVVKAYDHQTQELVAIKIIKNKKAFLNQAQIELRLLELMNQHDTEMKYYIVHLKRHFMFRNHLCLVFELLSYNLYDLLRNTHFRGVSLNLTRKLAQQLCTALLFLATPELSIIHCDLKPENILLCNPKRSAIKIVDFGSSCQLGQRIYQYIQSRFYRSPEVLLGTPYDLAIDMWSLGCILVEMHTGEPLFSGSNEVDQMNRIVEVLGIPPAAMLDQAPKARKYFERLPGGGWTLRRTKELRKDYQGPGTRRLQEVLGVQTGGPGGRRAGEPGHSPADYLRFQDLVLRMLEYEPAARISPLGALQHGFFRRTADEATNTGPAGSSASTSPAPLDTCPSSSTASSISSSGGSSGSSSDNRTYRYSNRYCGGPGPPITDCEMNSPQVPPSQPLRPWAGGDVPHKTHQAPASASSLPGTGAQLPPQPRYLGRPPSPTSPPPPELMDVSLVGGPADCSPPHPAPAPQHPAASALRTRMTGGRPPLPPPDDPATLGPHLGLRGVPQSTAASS
Chain of MST1R (human) (Q04912 whole entry, looked up): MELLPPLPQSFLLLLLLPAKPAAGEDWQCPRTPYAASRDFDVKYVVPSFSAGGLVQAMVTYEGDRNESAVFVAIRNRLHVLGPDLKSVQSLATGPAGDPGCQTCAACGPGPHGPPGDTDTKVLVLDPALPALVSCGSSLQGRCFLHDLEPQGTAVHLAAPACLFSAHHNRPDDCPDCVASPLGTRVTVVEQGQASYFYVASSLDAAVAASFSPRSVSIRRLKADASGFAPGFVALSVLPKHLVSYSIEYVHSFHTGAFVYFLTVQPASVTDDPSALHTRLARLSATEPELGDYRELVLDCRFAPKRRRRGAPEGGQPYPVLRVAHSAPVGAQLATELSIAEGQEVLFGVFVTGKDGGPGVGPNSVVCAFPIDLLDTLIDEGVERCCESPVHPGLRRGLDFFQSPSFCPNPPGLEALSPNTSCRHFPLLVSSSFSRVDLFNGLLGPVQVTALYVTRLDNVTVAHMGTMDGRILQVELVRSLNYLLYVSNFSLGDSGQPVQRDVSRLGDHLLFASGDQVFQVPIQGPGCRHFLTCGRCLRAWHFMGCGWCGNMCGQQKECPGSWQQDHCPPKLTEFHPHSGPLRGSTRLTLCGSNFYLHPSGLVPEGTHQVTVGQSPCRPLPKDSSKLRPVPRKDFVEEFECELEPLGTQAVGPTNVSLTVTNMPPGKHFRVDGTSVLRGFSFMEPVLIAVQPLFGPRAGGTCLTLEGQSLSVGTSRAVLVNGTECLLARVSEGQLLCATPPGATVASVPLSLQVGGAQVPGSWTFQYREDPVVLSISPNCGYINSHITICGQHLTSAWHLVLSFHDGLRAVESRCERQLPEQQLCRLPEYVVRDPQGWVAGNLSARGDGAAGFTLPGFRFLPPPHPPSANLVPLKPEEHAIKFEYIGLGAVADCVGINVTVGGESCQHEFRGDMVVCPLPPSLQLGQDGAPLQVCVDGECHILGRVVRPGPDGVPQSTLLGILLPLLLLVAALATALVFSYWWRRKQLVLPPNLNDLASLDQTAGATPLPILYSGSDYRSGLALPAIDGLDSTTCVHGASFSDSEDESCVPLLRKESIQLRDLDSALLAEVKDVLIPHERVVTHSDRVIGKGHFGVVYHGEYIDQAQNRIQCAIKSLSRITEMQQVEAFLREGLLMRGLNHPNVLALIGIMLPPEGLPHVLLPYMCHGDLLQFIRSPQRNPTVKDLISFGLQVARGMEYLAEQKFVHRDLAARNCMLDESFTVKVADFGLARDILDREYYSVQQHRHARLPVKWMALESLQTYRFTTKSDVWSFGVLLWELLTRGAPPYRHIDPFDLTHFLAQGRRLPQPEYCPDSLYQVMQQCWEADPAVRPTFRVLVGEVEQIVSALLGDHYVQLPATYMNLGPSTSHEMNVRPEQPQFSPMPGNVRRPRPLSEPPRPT
Chain of CDK6 CCND1 (human) (P24385 whole entry, looked up): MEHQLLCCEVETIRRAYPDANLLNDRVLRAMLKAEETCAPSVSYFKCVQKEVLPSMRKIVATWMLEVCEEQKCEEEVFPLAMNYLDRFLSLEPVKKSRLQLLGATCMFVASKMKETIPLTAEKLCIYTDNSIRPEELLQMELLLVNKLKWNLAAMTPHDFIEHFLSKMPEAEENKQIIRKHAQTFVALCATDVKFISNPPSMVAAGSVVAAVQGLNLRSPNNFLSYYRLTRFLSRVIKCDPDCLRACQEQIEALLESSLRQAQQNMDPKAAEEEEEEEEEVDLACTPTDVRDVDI
Chain of CDK6 CCND1 (human) (Q00534 whole entry, looked up): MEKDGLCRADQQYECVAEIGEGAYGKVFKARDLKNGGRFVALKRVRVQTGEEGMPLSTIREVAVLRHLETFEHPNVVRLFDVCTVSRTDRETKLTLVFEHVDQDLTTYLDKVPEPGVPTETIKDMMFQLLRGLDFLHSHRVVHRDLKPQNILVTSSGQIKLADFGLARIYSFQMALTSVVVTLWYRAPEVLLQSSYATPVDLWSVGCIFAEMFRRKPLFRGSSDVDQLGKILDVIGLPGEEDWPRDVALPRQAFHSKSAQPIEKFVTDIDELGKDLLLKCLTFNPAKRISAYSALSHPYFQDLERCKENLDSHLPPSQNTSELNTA
Chain of CDK6 CCND3 (human) (P30281 whole entry, looked up): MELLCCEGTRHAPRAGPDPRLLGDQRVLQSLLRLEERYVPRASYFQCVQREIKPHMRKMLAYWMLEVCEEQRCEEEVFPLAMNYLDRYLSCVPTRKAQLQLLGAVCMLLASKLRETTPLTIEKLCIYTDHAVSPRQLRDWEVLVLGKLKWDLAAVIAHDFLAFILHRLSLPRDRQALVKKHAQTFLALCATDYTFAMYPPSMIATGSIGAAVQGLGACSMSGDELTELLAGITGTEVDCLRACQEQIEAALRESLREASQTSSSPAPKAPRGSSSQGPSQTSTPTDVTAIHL
Chain of CDK6 CCND3 (human) (Q00534 whole entry, looked up): as the sequence (Q00534 whole entry, looked up) above

SMILES: O=C1NC(=O)c2cc(Nc3ccc(F)cc3)c(Nc3ccc(F)cc3)cc21
- residual activity [1]: 95.5%
- residual activity [2]: 98.7%
- residual activity [3]: 99.8%
- residual activity [4]: 96.3%
- residual activity [5]: 100%
- residual activity [6]: 98.6%
- residual activity [7]: 84.1%
- residual activity [8]: 89.9%
- residual activity [9]: 88.3%
- residual activity [10]: 94%
- residual activity [11]: 96.4%
- residual activity [12]: 88.3%
- residual activity [13]: 103%
- residual activity [14]: 102%
- residual activity [15]: 104%
- residual activity [16]: 94.8%
- residual activity [17]: 99%
- residual activity [18]: 95.9%
- residual activity [19]: 93.5%
- residual activity [20]: 97.3%
- residual activity [21]: 94.2%
- residual activity [22]: 107%
- residual activity [23]: 85.5%
- residual activity [24]: 92.6%
- residual activity [25]: 98%
- residual activity [26]: 98.2%
- residual activity [27]: 101%
- residual activity [28]: 105%
- residual activity [29]: 106%
- residual activity [30]: 99.7%
- residual activity [31]: 94.2%
- residual activity [32]: 100%
- residual activity [33]: 108%
- residual activity [34]: 99.6%
- residual activity [35]: 66.8%
- residual activity [36]: 94.3%
- residual activity [37]: 99.3%
- residual activity [38]: 98.4%
- residual activity [39]: 98%
- residual activity [40]: 88.1%
- residual activity [41]: 94.7%

SMILES: O=c1c(-c2ccc(F)cc2)c(-c2ccncc2)[nH]n1-c1ccc(Cl)cc1
- residual activity [1]: 92.4%
- residual activity [2]: 101%
- residual activity [3]: 102%
- residual activity [4]: 94.3%
- residual activity [5]: 95%
- residual activity [6]: 81.5%
- residual activity [7]: 94.4%
- residual activity [8]: 93.7%
- residual activity [9]: 91.1%
- residual activity [10]: 93.5%
- residual activity [11]: 86.3%
- residual activity [42]: 57.7%
- residual activity [12]: 83%
- residual activity [13]: 101%
- residual activity [14]: 104%
- residual activity [15]: 113%
- residual activity [16]: 94.1%
- residual activity [17]: 92.3%
- residual activity [18]: 101%
- residual activity [19]: 109%
- residual activity [20]: 92%
- residual activity [22]: 93.9%
- residual activity [23]: 93.7%
- residual activity [24]: 83.8%
- residual activity [25]: 92.2%
- residual activity [26]: 90.7%
- residual activity [27]: 91.9%
- residual activity [28]: 92.2%
- residual activity [29]: 104%
- residual activity [30]: 95.1%
- residual activity [31]: 123%
- residual activity [32]: 98.3%
- residual activity [33]: 87.6%
- residual activity [34]: 92.5%
- residual activity [35]: 57%
- residual activity [36]: 91.4%
- residual activity [37]: 101%
- residual activity [38]: 101%
- residual activity [39]: 96.3%
- residual activity [40]: 99%
- residual activity [41]: 101%

SMILES: COc1cc2c(Nc3ccc(Br)cc3F)ncnc2cc1OCC1CCN(C)CC1
- residual activity [1]: 108%
- residual activity [2]: 97.1%
- residual activity [3]: 113%
- residual activity [4]: 105%
- residual activity [5]: 93.6%
- residual activity [6]: 102%
- residual activity [7]: 57.5%
- residual activity [11]: 93.5%
- residual activity [12]: 102%
- residual activity [13]: 17.6%
- residual activity [14]: 91.3%
- residual activity [15]: 55%
- residual activity [16]: 55.5%
- residual activity [17]: 98.7%
- residual activity [18]: 98.5%
- residual activity [19]: 79.7%
- residual activity [20]: 99.5%
- residual activity [21]: 94.8%
- residual activity [22]: 102%
- residual activity [23]: 100%
- residual activity [25]: 102%
- residual activity [26]: 84.2%
- residual activity [27]: 106%
- residual activity [28]: 93%
- residual activity [29]: 101%
- residual activity [30]: 95.5%
- residual activity [31]: 107%
- residual activity [32]: 85.8%
- residual activity [33]: 94.6%
- residual activity [34]: 103%
- residual activity [35]: 3.27%
- residual activity [36]: 62.1%
- residual activity [37]: 85.1%
- residual activity [39]: 95%
- residual activity [40]: 89.7%
- residual activity [41]: 104%

SMILES: COc1cc2c(cc1OC)-c1[nH]nc(Nc3cccc(F)c3)c1C2
- residual activity [1]: 96.9%
- residual activity [2]: 86.4%
- residual activity [3]: 82.3%
- residual activity [4]: 96.5%
- residual activity [5]: 99.1%
- residual activity [6]: 92.6%
- residual activity [7]: 60.6%
- residual activity [8]: 99.5%
- residual activity [9]: 61.9%
- residual activity [10]: 93.3%
- residual activity [11]: 93.2%
- residual activity [12]: 86.8%
- residual activity [13]: 38.6%
- residual activity [14]: 95.9%
- residual activity [15]: 96.1%
- residual activity [16]: 89%
- residual activity [17]: 92.9%
- residual activity [18]: 90.8%
- residual activity [19]: 103%
- residual activity [20]: 98%
- residual activity [21]: 93.8%
- residual activity [22]: 101%
- residual activity [23]: 113%
- residual activity [24]: 103%
- residual activity [25]: 99.7%
- residual activity [26]: 107%
- residual activity [27]: 102%
- residual activity [28]: 102%
- residual activity [29]: 101%
- residual activity [30]: 79.2%
- residual activity [31]: 92.9%
- residual activity [32]: 93.3%
- residual activity [33]: 109%
- residual activity [34]: 97.1%
- residual activity [35]: 82.7%
- residual activity [36]: 96.5%
- residual activity [37]: 99.5%
- residual activity [39]: 94.9%
- residual activity [40]: 84.3%
- residual activity [41]: 97.1%

SMILES: N#C/C(=C1/Nc2ccccc2S1)c1ccnc(NCCc2cccnc2)n1
- residual activity [1]: 96.5%
- residual activity [2]: 92.8%
- residual activity [3]: 83.4%
- residual activity [4]: 99.1%
- residual activity [5]: 93.5%
- residual activity [6]: 65%
- residual activity [7]: 49.3%
- residual activity [8]: 94.6%
- residual activity [9]: 92.2%
- residual activity [10]: 104%
- residual activity [11]: 98.9%
- residual activity [12]: 80.4%
- residual activity [13]: 96.4%
- residual activity [14]: 95.9%
- residual activity [15]: 106%
- residual activity [16]: 89%
- residual activity [17]: 89.7%
- residual activity [18]: 102%
- residual activity [19]: 102%
- residual activity [20]: 100%
- residual activity [21]: 96.6%
- residual activity [22]: 89.1%
- residual activity [23]: 100%
- residual activity [24]: 85.2%
- residual activity [25]: 89.5%
- residual activity [26]: 96.1%
- residual activity [27]: 101%
- residual activity [28]: 53.2%
- residual activity [29]: 92.3%
- residual activity [30]: 94%
- residual activity [31]: 97.1%
- residual activity [32]: 90.3%
- residual activity [34]: 95.8%
- residual activity [35]: 87.1%
- residual activity [36]: 93.9%
- residual activity [37]: 55.4%
- residual activity [38]: 98.3%
- residual activity [39]: 94.7%
- residual activity [40]: 48.5%
- residual activity [41]: 86.4%
